Assay results taken from article PMC8596132 (Advanced Science, 2021).
Read-outs that look alike come from different tables or passages of the source. Bridge positions count the residues as written; N and C are the ends. Peptide text beside a SMILES is read from it.

Key:
mouse TRPM8 channel = molecular target: T1, mouse TRPM8 channel (Mus musculus, UniProt Q8R4D5); assay: whole-cell patch-clamp recording, menthol activation of TRPM8; format: cell-based
T1 construct: expressed in transfected cells; host or cells: HEK293 / HEK293T cells
Description: HEK293T cells were cultured in Dulbecco's modified Eagle's medium with 10% fetal bovine serum, penicillin (100 U mL^−1), and streptomycin ([…]) at 37 °C with 5% CO2. Transient transfection was conducted by using Lipofectamine 2000 (Invitrogen) and following the instruction manual.
(§1) Electrophysiological experiments were performed between 24 and 48 h after transfections. Specifically, single‐channel recordings were conducted about […] after transfection.
Patch‐clamp recordings were performed with a HEKA EPC10 amplifier with PatchMaster software (HEKA) in the whole‐cell, inside‐out, or outside‐out configuration. For whole cell recordings, patch pipettes were prepared from borosilicate glass and fire‐polished to a resistance of ≈3–6 MΩ. Serial resistance was compensated by 60%. Whole‐cell recordings were performed at ±80 mV. For single‐channel recordings, patch pipettes were fire‐polished to a higher resistance of 6–8 MΩ. Current signal was sampled at 10 kHz and filtered at 2.9 kHz. […]
(§2) There were different solutions prepared for different ion channels current recordings. […] TRPM2 currents were recorded with the help of standard bath solution of 147 × 10^−3 M NaCl, 2 × 10^−3 M KCl, 1 × 10^−3 M MgCl2, 10 × 10^−3 M HEPES, 2 × 10^−3 M CaCl2, 13 × 10^−3 M glucose, pH = 7.4 and the pipette solutions of 147 × 10^−3 M NaCl, 1 × 10^−3 M MgCl2, 10 × 10^−3 M HEPES, pH = 7.4. […]

TRPM8 channel = molecular target: T2, TRPM8 channel (Mus musculus, UniProt Q8R4D5); assay: single-channel patch-clamp recording, menthol activation (outside-out); format: cell-based; conditions: +80 mV
T2 construct: expressed in transfected cells; host or cells: HEK293 / HEK293T cells
Description: as §1
(§3) Patch‐clamp recordings were performed with a HEKA EPC10 amplifier with PatchMaster software (HEKA) in the whole‐cell, inside‐out, or outside‐out configuration. For whole cell recordings, patch pipettes were prepared from borosilicate glass and fire‐polished to a resistance of ≈3–6 MΩ. Serial resistance was compensated by 60%. Whole‐cell recordings were performed at ±80 mV. For single‐channel recordings, patch pipettes were fire‐polished to a higher resistance of 6–8 MΩ. Current signal was sampled at 10 kHz and filtered at 2.9 kHz. Membrane potential was clamped at +80 mV. All recordings were performed at room temperature (22 °C) with the maximum variation of 1 °C.
There were different solutions prepared for different ion channels current recordings. For TRPM8, TRPV1, TRPV2, TRPV3, and TRPA1 channels recording, the standard bath and pipette solution contained: 130 × 10^−3 M NaCl, 0.2 × 10^−3 M EDTA, and 3 × 10^−3 M HEPES, pH = 7.2. For TRPM4 channels recording, solutions with 130 × 10^−3 M NaCl and 3 × 10^−3 M HEPES, pH = 7.2 were used as standard bath solution. The pipette solutions required 500 × 10^−6 M CaCl2 mixing with 130 × 10^−3 M NaCl and 3 × 10^−3 M HEPES, pH = 7.2. TRPM2 currents were recorded with the help of standard bath solution of 147 × 10^−3 M NaCl, 2 × 10^−3 M KCl, 1 × 10^−3 M MgCl2, 10 × 10^−3 M HEPES, 2 × 10^−3 M CaCl2, 13 × 10^−3 M glucose, pH = 7.4 and the pipette solutions of 147 × 10^−3 M NaCl, 1 × 10^−3 M MgCl2, 10 × 10^−3 M HEPES, pH = 7.4. For NaV1.5, NaV1.7 channels, the standard bath solution was 140 × 10^−3 M NaCl, 3 × 10^−3 M KCl, 1 × 10^−3 M MgCl2, 1 × 10^−3 M CaCl2, 10 × 10^−3 M HEPES, pH = 7.2 and standard pipette solution was 140 × 10^−3 M CsF, 1 × 10^−3 M EGTA, 10× 10^−3 M NaCl, 10 × 10^−3 M MgCl2, 3 × 10^−3 M KCl, pH = 7.2. To evoke sodium channel currents, a holding potential of −80 mV was used with a testing pulse to +10 mV. […]

TRPV2 = molecular target: T3, TRPV2 (Homo sapiens, UniProt Q9Y5S1); assay: whole-cell recording, TRPV2 ligand activation; format: cell-based; conditions: read-out: IC50, inhibition of TRPV2
T3 construct: expressed in transfected cells; host or cells: HEK293T
T3 sequence (Q9Y5S1 1-764): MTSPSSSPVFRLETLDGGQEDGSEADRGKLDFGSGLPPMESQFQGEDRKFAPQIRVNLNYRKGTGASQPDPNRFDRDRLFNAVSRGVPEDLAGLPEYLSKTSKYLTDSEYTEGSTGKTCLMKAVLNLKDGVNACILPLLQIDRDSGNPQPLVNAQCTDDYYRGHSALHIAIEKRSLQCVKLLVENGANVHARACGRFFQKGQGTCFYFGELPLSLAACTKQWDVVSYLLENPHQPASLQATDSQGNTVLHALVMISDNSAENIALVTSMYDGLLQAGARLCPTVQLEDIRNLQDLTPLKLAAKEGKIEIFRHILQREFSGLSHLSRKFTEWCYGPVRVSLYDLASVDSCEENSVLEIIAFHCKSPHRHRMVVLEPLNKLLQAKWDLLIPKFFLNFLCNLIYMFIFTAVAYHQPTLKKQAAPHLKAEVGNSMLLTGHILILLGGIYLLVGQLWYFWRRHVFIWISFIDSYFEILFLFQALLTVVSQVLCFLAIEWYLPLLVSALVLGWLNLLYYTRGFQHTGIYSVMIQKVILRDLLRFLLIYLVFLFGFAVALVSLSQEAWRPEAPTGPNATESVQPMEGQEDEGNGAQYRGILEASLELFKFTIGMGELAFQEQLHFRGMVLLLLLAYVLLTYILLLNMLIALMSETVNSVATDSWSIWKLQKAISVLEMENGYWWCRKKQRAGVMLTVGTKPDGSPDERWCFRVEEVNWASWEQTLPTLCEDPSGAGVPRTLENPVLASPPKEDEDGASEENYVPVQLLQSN
Description: as §3
as §2, with “recordings. For TRPM8, TRPV1, TRPV2, TRPV3, and TRPA1 channels recording, the standard bath and pipette solution contained: 130 × 10^−3 M NaCl, 0.2 × 10^−3 M EDTA, and 3 × 10^−3 M HEPES, pH = 7.2. For TRPM4 channels recording, solutions with 130 × 10^−3 M NaCl and 3 × 10^−3 M HEPES, pH = 7.2 were used as standard bath solution.” for “recordings.”

[1] = body temperature measurement; format: in vivo; conditions: mice, i.v. 30 µg g^−1, rectal temperature up to 24 h, 5-9 animals
Description: Adult CD1 mice (male, 6–8 weeks) were used for behavioral and primary cultures of DRG neurons studies. Mice were group‐housed under the 12 h light‐dark cycle with access to standard food and water ad libitum. All the animal procedures were approved by the Institutional Animal Care & Use Committee (IACUC) of Zhejiang University.
A digital thermometer (FT3400) was used for body temperature measurement. Adult CD1 male mice were placed into an environmental room maintained at a constant temperature of 22 ± 1 °C. Body temperature was recorded using a rectal probe for mice (FT3400), which was inserted ≈2 cm from the anus. Body temperature was measured before treatment (baseline, BL) and at 5 min, 15 min, 0.5,1,2, 6, and 24 h following DeC‐1.2 (30 mg kg^−1, i.v.) administration.

T2 sequence (Q8R4D5 whole entry): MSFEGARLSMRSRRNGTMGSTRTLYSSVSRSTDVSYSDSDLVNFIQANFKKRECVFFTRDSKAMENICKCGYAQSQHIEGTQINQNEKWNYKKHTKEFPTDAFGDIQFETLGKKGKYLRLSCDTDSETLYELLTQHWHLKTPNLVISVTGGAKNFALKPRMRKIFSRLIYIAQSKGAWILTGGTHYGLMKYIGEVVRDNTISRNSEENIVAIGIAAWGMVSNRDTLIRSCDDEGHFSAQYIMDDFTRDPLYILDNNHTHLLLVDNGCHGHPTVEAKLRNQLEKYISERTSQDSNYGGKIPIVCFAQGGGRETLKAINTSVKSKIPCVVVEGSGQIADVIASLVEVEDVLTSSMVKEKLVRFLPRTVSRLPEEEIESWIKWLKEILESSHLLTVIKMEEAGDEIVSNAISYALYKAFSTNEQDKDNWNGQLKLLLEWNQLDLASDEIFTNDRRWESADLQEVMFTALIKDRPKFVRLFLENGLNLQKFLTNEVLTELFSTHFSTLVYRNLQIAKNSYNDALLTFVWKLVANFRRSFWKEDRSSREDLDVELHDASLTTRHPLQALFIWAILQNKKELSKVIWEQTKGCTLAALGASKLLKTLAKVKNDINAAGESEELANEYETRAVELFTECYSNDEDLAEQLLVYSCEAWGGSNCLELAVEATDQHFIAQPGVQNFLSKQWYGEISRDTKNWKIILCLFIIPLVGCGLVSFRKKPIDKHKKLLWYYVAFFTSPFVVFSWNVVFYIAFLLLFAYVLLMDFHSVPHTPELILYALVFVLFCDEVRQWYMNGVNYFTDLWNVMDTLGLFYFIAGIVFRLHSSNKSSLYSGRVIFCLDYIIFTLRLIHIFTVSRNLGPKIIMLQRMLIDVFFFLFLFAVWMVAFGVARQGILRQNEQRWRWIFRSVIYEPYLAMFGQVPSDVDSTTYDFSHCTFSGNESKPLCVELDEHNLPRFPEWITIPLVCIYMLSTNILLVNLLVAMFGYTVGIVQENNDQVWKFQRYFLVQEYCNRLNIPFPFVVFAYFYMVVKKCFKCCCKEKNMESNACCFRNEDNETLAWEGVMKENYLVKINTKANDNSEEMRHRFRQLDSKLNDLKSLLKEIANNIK
T1 sequence (Q8R4D5 whole entry): as above

SMILES: C[C@@H]1NC(=O)[C@H](C)NC(=O)[C@H](CCCNC(=N)N)NC(=O)[C@H](CO)NC(=O)[C@H](CC(N)=O)NC(=O)[C@H](CCCNC(=N)N)NC(=O)[C@@H](N)CSSC[C@@H](C(=O)O)NC(=O)[C@H](CCCCN)NC(=O)[C@H](CCC(N)=O)NC(=O)[C@H](CO)NC(=O)[C@H](CC(=O)O)NC(=O)[C@H](Cc2c[nH]cn2)NC1=O [DeC‐1.1] (H-CRNSRAAHDSQKC-OH; disulfide 1-13)
- IC50 (mouse TRPM8 channel; SEM): 133 ± 73.5 µM

SMILES: C[C@@H]1NC(=O)[C@H](CCCNC(=N)N)NC(=O)[C@H](CC(=O)O)NC(=O)[C@H](CCCNC(=N)N)NC(=O)[C@H](CCCNC(=N)N)NC(=O)[C@@H](N)CSSC[C@@H](C(=O)O)NC(=O)[C@H](CCCNC(=N)N)NC(=O)[C@H](CCC(N)=O)NC(=O)[C@H](CCCNC(=N)N)NC(=O)[C@H](Cc2ccc(O)cc2)NC(=O)[C@H](Cc2c[nH]cn2)NC(=O)[C@H](CCCNC(=N)N)NC1=O [DeC‐1.2] (H-CRRDRARHYRQRC-OH; disulfide 1-13)
- IC50 (mouse TRPM8 channel; whole-cell patch clamp, TRPM8 expressed in HEK293 cells, −80 mV, 22 °C, n = 3, mean ± SEM, read-out: IC50, inhibition of menthol-induced TRPM8 activation): 0.0045 ± 0.003 µM
- open probability of TRPM8 with DeC-1.2 plus menthol (TRPM8 channel; outside-out, menthol 1 × 10^−3 M + DeC-1.2 100 × 10^−6 M, mean ± SEM, n = 5, SEM): 18.83 ± 1.92%
- IC50 (TRPV2): ~10 µM
- effect on body temperature [1]: did not significantly alter body temperature

SMILES: CC1CCC(C(C)C)C(O)C1 (stereo not shown) [menthol]
- maximum open probability of TRPM8 activation by menthol (TRPM8 channel; saturating menthol 1 × 10^−3 M alone): about 70%
- single-channel conductance of TRPM8 with menthol (TRPM8 channel; saturating menthol 1 × 10^−3 M alone, mean ± SEM, n = 3, SEM): 58.83 ± 1.85 pS
